pIC50: −log10 of the molar value. Calls of active or inactive are those of the source. The calls are words filed in the database; no cut-off is given here.
Key:
[1] = target: Glutamate [NMDA] receptor; assay: (§1) Inhibition of NMDA receptor glycine binding site (unknown origin); design: species or system Homo sapiens
[2] = test system: Human immunodeficiency virus; assay: Antiviral activity against HIV; assay type: functional, organism-based; conditions: Human immunodeficiency virus 1
Nucleic Acid = assay: Inhibition of TAT/TAR RNA interaction in HIV1; assay type: nucleic-acid assay, Human immunodeficiency virus 1
[3] = target: Glutamate [NMDA] receptor (Homo sapiens) (UniProt Q05586+Q12879+Q13224+O15399+O60391+Q14957+Q8TCU5); assay: as §1
[4] = target: Adrenergic receptor alpha-1 (Homo sapiens) (UniProt P35348+P25100+P35368); assay: Inhibition of alpha1 adrenergic receptor (unknown origin) at 10 uM by radioligand displacement assay; assay type: protein assay
[5] = Inhibition of estrogen receptor (unknown origin); design: species or system Homo sapiens

| pIC50 [1] | Compound | also measured |
| --- | --- | --- |
| 4.55 | C[C@H](N)CC(=O)NCC(=O)O |  |
| 4.22 | CCNCCC(=O)NCCC(=O)O |  |
| 4.21 | NCCCC(=O)NCC(=O)O |  |
|  | CC(C)n1c(O)nnc1Sc1cccc(C(F)(F)F)c1 | pIC50 [2]: 4.10 |
|  | CCOc1cccc(CN(c2cccc(F)c2)C2CCNCC2)c1 | pIC50 (Nucleic Acid): 3.30 |
| 3.43 | NC[C@@H]1NC(=O)CNC1=O |  |
|  | NC[C@H]1CNC(=O)C(=O)N1 | inhibition [3]: inactive |
| 3.95 | C[C@@H](NCCN)C(=O)O |  |
|  | OCc1ccccc1C1CCCNC1 (stereo not given) | inhibition [4]: > 50% |
|  | Oc1ccc(-c2cc3ccc(O)cc3s2)cc1 [RALOXIFENE CORE] | pIC50 [5]: 6.47 |
